Assay results as given in patent US20090155209A1, “NOVEL MACROCYCLIC INHIBITORS OF HEPATITIS C VIRUS REPLICATION” (priority 2007, published 2009).

Target: NS3-NS4 (Hepatitis C virus genotype 1a, UniProt P27958)
Test: NS3-NS4 activity, IC50 (Example 37, Table 8)
Assay type: biochemical

Sequence of NS3-NS4 (P27958 1027-1657): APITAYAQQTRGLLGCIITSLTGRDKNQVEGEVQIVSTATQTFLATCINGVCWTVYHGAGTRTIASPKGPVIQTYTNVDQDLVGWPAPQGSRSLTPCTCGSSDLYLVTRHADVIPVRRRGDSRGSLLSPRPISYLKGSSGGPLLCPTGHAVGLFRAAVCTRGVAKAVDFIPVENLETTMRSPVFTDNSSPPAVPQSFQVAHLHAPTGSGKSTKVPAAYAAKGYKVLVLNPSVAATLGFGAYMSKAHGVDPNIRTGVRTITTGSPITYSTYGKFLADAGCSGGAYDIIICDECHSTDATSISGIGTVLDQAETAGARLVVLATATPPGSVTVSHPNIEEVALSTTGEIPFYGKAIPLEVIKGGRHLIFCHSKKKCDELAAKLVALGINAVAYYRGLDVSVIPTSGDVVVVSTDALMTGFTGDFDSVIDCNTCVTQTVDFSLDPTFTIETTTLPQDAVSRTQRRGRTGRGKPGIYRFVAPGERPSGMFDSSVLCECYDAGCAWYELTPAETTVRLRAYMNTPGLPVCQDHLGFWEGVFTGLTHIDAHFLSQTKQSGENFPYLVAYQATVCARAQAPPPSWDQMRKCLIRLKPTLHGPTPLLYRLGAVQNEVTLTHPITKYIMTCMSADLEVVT
Sequence of NS3-NS4 (P27958 1658-1711): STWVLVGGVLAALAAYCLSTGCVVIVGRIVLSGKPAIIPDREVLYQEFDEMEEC

| Structure (SMILES) | IC50 |
| --- | --- |
| CC(C)(C)OC(=O)N[C@H]1CCCCC/C=C\[C@@H]2C[C@@]2(C(=O)NS(=O)(=O)c2ccc(Cl)s2)NC(=O)[C@@H]2C[C@@H](OC(=O)N3Cc4cccc(F)c4C3)CN2C1=O [Compound 535] | < 100 nM |
| CC(C)(C)OC(=O)N[C@H]1CCCCCCC[C@@H]2C[C@@]2(C(=O)NS(=O)(=O)Cc2ccc(Cl)cc2Cl)NC(=O)[C@@H]2C[C@@H](OC(=O)N3Cc4cccc(F)c4C3)CN2C1=O [Compound 624] | < 100 nM |
| CC(C)(C)OC(=O)N[C@H]1CCCCCCC[C@@H]2C[C@@]2(C(=O)NS(=O)(=O)Cc2cc(Cl)ccc2Cl)NC(=O)[C@@H]2C[C@@H](OC(=O)N3Cc4cccc(F)c4C3)CN2C1=O [Compound 625] | < 100 nM |
| CC(C)(C)OC(=O)N[C@H]1CCCCCCC[C@@H]2C[C@@]2(C(=O)NS(=O)(=O)Cc2c(Cl)cccc2Cl)NC(=O)[C@@H]2C[C@@H](OC(=O)N3Cc4cccc(F)c4C3)CN2C1=O [Compound 626] | < 100 nM |
| CC(C)(C)OC(=O)N[C@H]1CCCCCCC[C@@H]2C[C@@]2(C(=O)NS(=O)(=O)Cc2ccc(Cl)c(Cl)c2)NC(=O)[C@@H]2C[C@@H](OC(=O)N3Cc4cccc(F)c4C3)CN2C1=O [Compound 627] | < 100 nM |
| Cc1ccc(CS(=O)(=O)NC(=O)[C@@]23C[C@H]2CCCCCCC[C@H](NC(=O)OC(C)(C)C)C(=O)N2C[C@H](OC(=O)N4Cc5cccc(F)c5C4)C[C@H]2C(=O)N3)c(C)c1 [Compound 628] | < 100 nM |
| Cc1ccc(CS(=O)(=O)NC(=O)[C@@]23C[C@H]2CCCCCCC[C@H](NC(=O)OC(C)(C)C)C(=O)N2C[C@H](OC(=O)N4Cc5cccc(F)c5C4)C[C@H]2C(=O)N3)cc1C [Compound 630] | < 100 nM |
| COc1cccc(CS(=O)(=O)NC(=O)[C@@]23C[C@H]2CCCCCCC[C@H](NC(=O)OC(C)(C)C)C(=O)N2C[C@H](OC(=O)N4Cc5cccc(F)c5C4)C[C@H]2C(=O)N3)c1OC [Compound 631] | < 100 nM |
| CC(C)(C)OC(=O)N[C@H]1CCCCCCC[C@@H]2C[C@@]2(C(=O)NS(=O)(=O)Cc2ccc(C(F)(F)F)cc2C(F)(F)F)NC(=O)[C@@H]2C[C@@H](OC(=O)N3Cc4cccc(F)c4C3)CN2C1=O [Compound 633] | < 100 nM |
| CC(C)(C)OC(=O)N[C@H]1CCCCCCC[C@@H]2C[C@@]2(C(=O)NS(=O)(=O)Cc2cc(C(F)(F)F)cc(C(F)(F)F)c2)NC(=O)[C@@H]2C[C@@H](OC(=O)N3Cc4cccc(F)c4C3)CN2C1=O [Compound 634] | < 100 nM |
| CC(C)(C)OC(=O)N[C@H]1CCCCCCC[C@@H]2C[C@@]2(C(=O)NS(=O)(=O)c2cccnc2Cl)NC(=O)[C@@H]2C[C@@H](OC(=O)N3Cc4cccc(F)c4C3)CN2C1=O [Compound 635] | < 100 nM |
| CC(C)(C)OC(=O)N[C@H]1CCCCCCC[C@@H]2C[C@@]2(C(=O)NS(=O)(=O)c2ccc(Cl)nc2)NC(=O)[C@@H]2C[C@@H](OC(=O)N3Cc4cccc(F)c4C3)CN2C1=O [Compound 636] | < 100 nM |
| Cc1cc(S(=O)(=O)NC(=O)[C@@]23C[C@H]2CCCCCCC[C@H](NC(=O)OC(C)(C)C)C(=O)N2C[C@H](OC(=O)N4Cc5cccc(F)c5C4)C[C@H]2C(=O)N3)oc1C [Compound 640] | < 100 nM |
| CC(C)(C)OC(=O)N[C@H]1CCCCCCC[C@@H]2C[C@@]2(C(=O)NS(=O)(=O)c2ccc(Cl)s2)NC(=O)[C@@H]2C[C@@H](OC(=O)N3Cc4cccc(F)c4C3)CN2C1=O [Compound 641] | < 100 nM |
| CC(C)(C)OC(=O)N[C@H]1CCCCCCC[C@@H]2C[C@@]2(C(=O)NS(=O)(=O)c2cc(Cl)cs2)NC(=O)[C@@H]2C[C@@H](OC(=O)N3Cc4cccc(F)c4C3)CN2C1=O [Compound 642] | < 100 nM |
| CC(C)(C)OC(=O)N[C@H]1CCCCCCC[C@@H]2C[C@@]2(C(=O)NS(=O)(=O)c2cc(Cl)c(Cl)s2)NC(=O)[C@@H]2C[C@@H](OC(=O)N3Cc4cccc(F)c4C3)CN2C1=O [Compound 643] | < 100 nM |
| Cc1ccc(S(=O)(=O)NC(=O)[C@@]23C[C@H]2CCCCCCC[C@H](NC(=O)OC(C)(C)C)C(=O)N2C[C@H](OC(=O)N4Cc5cccc(F)c5C4)C[C@H]2C(=O)N3)s1 [Compound 644] | < 100 nM |
| Cc1cc(S(=O)(=O)NC(=O)[C@@]23C[C@H]2CCCCCCC[C@H](NC(=O)OC(C)(C)C)C(=O)N2C[C@H](OC(=O)N4Cc5cccc(F)c5C4)C[C@H]2C(=O)N3)sc1C [Compound 646] | < 100 nM |
| COc1csc(S(=O)(=O)NC(=O)[C@@]23C[C@H]2CCCCCCC[C@H](NOC(=O)C(C)(C)C)C(=O)N2C[C@H](OC(=O)N4Cc5cccc(F)c5C4)C[C@H]2C(=O)N3)c1 [Compound 647] | < 100 nM |
| Cc1ccccc1ONC(=O)[C@@]12C[C@H]1/C=C\CCCCC[C@H](NC(=O)OC(C)(C)C)C(=O)N1C[C@H](OC(=O)N3Cc4cccc(F)c4C3)C[C@H]1C(=O)N2 [Compound 701] | < 100 nM |
| CC(C)(C)OC(=O)N[C@H]1CCCCC/C=C\[C@@H]2C[C@@]2(C(=O)NOc2ccc(F)cc2)NC(=O)[C@@H]2C[C@@H](OC(=O)N3Cc4cccc(F)c4C3)CN2C1=O [Compound 705] | < 100 nM |
| CC(C)(C)OC(=O)N[C@H]1CCCCC/C=C\[C@@H]2C[C@@]2(C(=O)NOc2cccc(Cl)c2)NC(=O)[C@@H]2C[C@@H](OC(=O)N3Cc4cccc(F)c4C3)CN2C1=O [Compound 706] | < 100 nM |
| CC(C)(C)ONC(=O)[C@@]12C[C@H]1/C=C\CCCCC[C@H](NC(=O)OC(C)(C)C)C(=O)N1C[C@H](OC(=O)N3Cc4cccc(F)c4C3)C[C@H]1C(=O)N2 [Compound 716] | < 100 nM |

More lines, now with the values ahead:

| IC50 | Structure (SMILES) |
| --- | --- |
| < 100 nM | Cc1ccccc1CS(=O)(=O)NC(=O)[C@@]12C[C@H]1/C=C\CCCCC[C@H](NC(=O)OC(C)(C)C)C(=O)N1C[C@H](OC(=O)N3Cc4cccc(F)c4C3)C[C@H]1C(=O)N2 [Compound 513] |
| < 100 nM | COc1cccc(CS(=O)(=O)NC(=O)[C@@]23C[C@H]2/C=C\CCCCC[C@H](NC(=O)OC(C)(C)C)C(=O)N2C[C@H](OC(=O)N4Cc5cccc(F)c5C4)C[C@H]2C(=O)N3)c1 [Compound 516] |
| < 100 nM | CC(C)(C)OC(=O)N[C@H]1CCCCC/C=C\[C@@H]2C[C@@]2(C(=O)NS(=O)(=O)c2ccc(Cl)nc2)NC(=O)[C@@H]2C[C@@H](OC(=O)N3Cc4cccc(F)c4C3)CN2C1=O [Compound 530] |
| < 100 nM | CC(C)(C)OC(=O)N[C@H]1CCCCC/C=C\[C@@H]2C[C@@]2(C(=O)NS(=O)(=O)c2ccc(Cl)nc2Cl)NC(=O)[C@@H]2C[C@@H](OC(=O)N3Cc4cccc(F)c4C3)CN2C1=O [Compound 531] |
| < 100 nM | COc1ccc(S(=O)(=O)NC(=O)[C@@]23C[C@H]2/C=C\CCCCC[C@H](NC(=O)OC(C)(C)C)C(=O)N2C[C@H](OC(=O)N4Cc5cccc(F)c5C4)C[C@H]2C(=O)N3)cn1 [Compound 532] |
| < 100 nM | Cc1cc(S(=O)(=O)NC(=O)[C@@]23C[C@H]2/C=C\CCCCC[C@H](NC(=O)OC(C)(C)C)C(=O)N2C[C@H](OC(=O)N4Cc5cccc(F)c5C4)C[C@H]2C(=O)N3)sc1C [Compound 540] |
| < 100 nM | CC(C)(C)OC(=O)N[C@H]1CCCCCCC[C@@H]2C[C@@]2(C(=O)NS(=O)(=O)Cc2ccccc2F)NC(=O)[C@@H]2C[C@@H](OC(=O)N3Cc4cccc(F)c4C3)CN2C1=O [Compound 607] |
| < 100 nM | CC(C)(C)OC(=O)N[C@H]1CCCCCCC[C@@H]2C[C@@]2(C(=O)NS(=O)(=O)Cc2cccc(F)c2)NC(=O)[C@@H]2C[C@@H](OC(=O)N3Cc4cccc(F)c4C3)CN2C1=O [Compound 608] |
| < 100 nM | CC(C)(C)OC(=O)N[C@H]1CCCCCCC[C@@H]2C[C@@]2(C(=O)NS(=O)(=O)Cc2ccc(F)cc2)NC(=O)[C@@H]2C[C@@H](OC(=O)N3Cc4cccc(F)c4C3)CN2C1=O [Compound 609] |
| < 100 nM | CC(C)(C)OC(=O)N[C@H]1CCCCCCC[C@@H]2C[C@@]2(C(=O)NS(=O)(=O)Cc2cccc(Cl)c2)NC(=O)[C@@H]2C[C@@H](OC(=O)N3Cc4cccc(F)c4C3)CN2C1=O [Compound 611] |
| < 100 nM | CC(C)(C)OC(=O)N[C@H]1CCCCCCC[C@@H]2C[C@@]2(C(=O)NS(=O)(=O)Cc2ccc(Cl)cc2)NC(=O)[C@@H]2C[C@@H](OC(=O)N3Cc4cccc(F)c4C3)CN2C1=O [Compound 612] |
| < 100 nM | Cc1cccc(CS(=O)(=O)NC(=O)[C@@]23C[C@H]2CCCCCCC[C@H](NC(=O)OC(C)(C)C)C(=O)N2C[C@H](OC(=O)N4Cc5cccc(F)c5C4)C[C@H]2C(=O)N3)c1 [Compound 614] |
| < 100 nM | Cc1ccc(CS(=O)(=O)NC(=O)[C@@]23C[C@H]2CCCCCCC[C@H](NC(=O)OC(C)(C)C)C(=O)N2C[C@H](OC(=O)N4Cc5cccc(F)c5C4)C[C@H]2C(=O)N3)cc1 [Compound 615] |
| < 100 nM | COc1cccc(CS(=O)(=O)NC(=O)[C@@]23C[C@H]2CCCCCCC[C@H](NC(=O)OC(C)(C)C)C(=O)N2C[C@H](OC(=O)N4Cc5cccc(F)c5C4)C[C@H]2C(=O)N3)c1 [Compound 616] |
| < 100 nM | CC(C)(C)OC(=O)N[C@H]1CCCCCCC[C@@H]2C[C@@]2(C(=O)NS(=O)(=O)Cc2ccccc2C(F)(F)F)NC(=O)[C@@H]2C[C@@H](OC(=O)N3Cc4cccc(F)c4C3)CN2C1=O [Compound 617] |
| < 100 nM | CC(C)(C)OC(=O)N[C@H]1CCCCCCC[C@@H]2C[C@@]2(C(=O)NS(=O)(=O)Cc2cccc(C(F)(F)F)c2)NC(=O)[C@@H]2C[C@@H](OC(=O)N3Cc4cccc(F)c4C3)CN2C1=O [Compound 618] |
| < 100 nM | CC(C)(C)OC(=O)N[C@H]1CCCCCCC[C@@H]2C[C@@]2(C(=O)NS(=O)(=O)Cc2ccc(C(F)(F)F)cc2)NC(=O)[C@@H]2C[C@@H](OC(=O)N3Cc4cccc(F)c4C3)CN2C1=O [Compound 619] |
| < 100 nM | CC(C)(C)OC(=O)N[C@H]1CCCCCCC[C@@H]2C[C@@]2(C(=O)NS(=O)(=O)Cc2cc(F)ccc2F)NC(=O)[C@@H]2C[C@@H](OC(=O)N3Cc4cccc(F)c4C3)CN2C1=O [Compound 620] |
| < 100 nM | CC(C)(C)OC(=O)N[C@H]1CCCCCCC[C@@H]2C[C@@]2(C(=O)NS(=O)(=O)Cc2c(F)cccc2F)NC(=O)[C@@H]2C[C@@H](OC(=O)N3Cc4cccc(F)c4C3)CN2C1=O [Compound 621] |
| < 100 nM | CC(C)(C)OC(=O)N[C@H]1CCCCCCC[C@@H]2C[C@@]2(C(=O)NS(=O)(=O)Cc2ccc(F)c(F)c2)NC(=O)[C@@H]2C[C@@H](OC(=O)N3Cc4cccc(F)c4C3)CN2C1=O [Compound 622] |
| < 100 nM | CC(C)(C)OC(=O)N[C@H]1CCCCCCC[C@@H]2C[C@@]2(C(=O)NS(=O)(=O)Cc2cc(F)cc(F)c2)NC(=O)[C@@H]2C[C@@H](OC(=O)N3Cc4cccc(F)c4C3)CN2C1=O [Compound 623] |
